Assays:
[1] = system: peripheral NK cell counts; assay: Peripheral NK cell counts in healthy rats; format: in vivo, rat; details: rat
Source text: The correlation of this effect with ex vivo cytokine signaling inhibition is shown in the right panel of FIG. 6. These measurements correlated well, confirming the Jak dependency of the NK cell count endpoint.
To establish the relationship between changes in NK cell counts and nonclinical efficacy, the changes in NK cell counts were compared with decreases in rat AIA disease activity per unit exposure.

[2] = system: adjuvant-induced arthritis (paw swelling, bone erosion); assay: Adjuvant-induced arthritis (AIA) in Lewis rats; format: in vivo
Experimental: The inflammation appears in the contra-lateral (left) hind paw seven days after the initial immunization. […] Rats are lightly anesthetized with an inhalant anesthetic (isoflurane) and the contra-lateral (left) hind paw is dipped into the plethysmograph and the paw volume is recorded. The rats are scored every other day up to day 17 after immunization. […] Bone volume and density is determined for a 360 μm (200 slice) vertical section encompassing the tarsal section of the paw. […] Drug exposure is determined in the plasma using LC/MS.

## C[C@@H]1CCN(C(=O)CC#N)C[C@@H]1N(C)c1ncnc2[nH]ccc12 [Tofacitinib, reference compound]
[1]
  NK Counts (exposure): 391 ng·h/mL
  NK cell count decrease at about 60% efficacy (inhibition of paw swelling): about 80%
[2]; AIA rats, about 60% inhibition of paw swelling
  efficacious exposure (AUC60), PK/PD modeling: ~300 ng·h/mL
[2]; oral bid, last day of study
  AUC60 (60% inhibition of paw swelling), total AUC0-12: 392 ± 121 ng·h/mL
  AUC60, fraction unbound AUC0-12: 300 ± 98 ng·h/mL
[2]; rat AIA
  Paw Swelling (exposure): 514 ng·h/mL
[2]; rat AIA vs reticulocyte deployment
  inhibition of Paw Swelling reached at about the same level of reticulocyte inhibition: about 60%

From US20150118229A1, “JAK1 SELECTIVE INHIBITOR AND USES THEREOF” (ABBVIE INC., priority 2013, published 2015)
